tested on: not given; assay: not given

Row | Structure (SMILES) | melting point
1 | O=C(/C=C(\O)c1nn[nH]n1)c1c(CCCc2ccc(F)cc2)[nH]c2ccc(Cl)cc12 | 181 to 182 °C (dec.)
2 | CCOC(=O)C(=CC(=O)c1cn(Cc2ccccc2)c2ccc(Cl)cc12)NC | 131 to 132 °C
3 | O=C(/C=C(\O)c1nc[nH]n1)c1cn(S(=O)(=O)c2ccccc2)c2cc(Cl)ccc12 | 265 to 270 °C
4 | O=C(/C=C(\O)c1nc[nH]n1)c1cn(Cc2ccccc2)c2ccc(Cl)cc12 | 264 to 265 °C
5 | CCOC(=O)C(N)=CC(=O)c1c[nH]c2ccccc12 | 200 to 205 °C
6 | O=C(/C=C(\O)c1nc[nH]n1)c1cn(Cc2ccc(F)cc2)c2ccc(Br)cc12 | 265 to 268 °C
7 | O=C(C=C(O)c1nn[nH]n1)c1cn(S(=O)(=O)c2cccs2)c2ccc(Cl)cc12 [Example 80] | 243 °C
8 | O=C(/C=C(\O)c1nn[nH]n1)c1c([S+]([O-])c2cc(Cl)cc(Cl)c2)[nH]c2ccc(Cl)cc12 (stereo not shown) | 200 to 204 °C (dec.)
9 | O=C(/C=C(\O)c1nc[nH]n1)c1cn(S(=O)(=O)c2cc(Cl)ccc2Cl)c2ccc(Cl)cc12 | 301 to 302 °C
10 | O=C(O)C(O)=CC(=O)c1cn(C(=O)c2ccc(F)cc2)c2ccc(Cl)cc12 | 213 to 218 °C
11 | O=C(/C=C(\O)c1nn[nH]n1)c1cn(Cc2ccccc2)c2c(Cl)cccc12 | 252 °C (dec.)
12 | O=C(O)c1cccc(C(O)=CC(=O)c2c[nH]c3ccc(Cl)cc23)c1 | > 270 °C (dec.)
13 | O=C(/C=C(\O)c1ncc[nH]1)c1c[nH]c2ccc(Cl)cc12 | 272 to 276 °C
14 | O=C(/C=C(\O)c1nc[nH]n1)c1cn(S(=O)(=O)c2ccccc2)c2ccc(Br)cc12 | 290 to 295 °C (dec.)
15 | O=C(/C=C(\O)c1nc[nH]n1)c1cn(Cc2ccc(F)cc2)c2cc(Cl)ccc12 | 260 to 263 °C
16 | CCOCCNC(=CC(=O)c1cn(Cc2ccccc2)c2ccc(Cl)cc12)C(=O)OCC | 73 to 74 °C
17 | COc1ccccc1Cc1[nH]c2ccc(Cl)cc2c1C(=O)/C=C(\O)c1nn[nH]n1 | 245 °C (dec.)
18 | CNC(=CC(=O)c1cn(Cc2ccccc2)c2ccc(Cl)cc12)C(=O)O | 205 to 210 °C (dec.)
19 | O=C(/C=C(\O)c1nccs1)c1cn(S(=O)(=O)c2ccccc2)c2ccc(Cl)cc12 | 191 to 194 °C
20 | O=C(/C=C(\O)c1nc[nH]n1)c1cn(S(=O)(=O)c2ccc(F)cc2)c2ccc(Br)cc12 | 266 to 270 °C
21 | O=C(C=C(O)c1nn[nH]n1)c1cn(Cc2ccccc2)c2ccc(Cl)cc12 [Example 81] | > 240 °C
22 | O=C(/C=C(\O)c1nccs1)c1c[nH]c2ccc(Cl)cc12 | 226 to 227 °C
23 | O=C(C=C(O)c1nc[nH]n1)c1c[nH]c2ccc(Cl)cc12 [Example 71] | 277 to 279 °C
24 | COC(=O)/C(O)=C/C(=O)c1c(Cc2ccc(F)cc2)[nH]c2ccc(Cl)cc12 | 235 to 238 °C
25 | O=C(OC(c1ccccc1)c1ccccc1)C(O)=CC(=O)c1cn(C(=O)c2ccc(F)cc2)c2ccc(Cl)cc12 | 198 to 200 °C
26 | O=C(O)/C(O)=C/C(=O)c1cn(Cc2ccc(C(=O)O)cc2)c2ccc(Cl)cc12 | 245 °C (dec.)
27 | O=C(/C=C(\O)c1nc[nH]n1)c1cn(S(=O)(=O)c2ccc(F)cc2)c2cc(Cl)ccc12 | 293 to 298 °C (dec.)
28 | COc1ccccc1Cn1cc(C(=O)/C=C(\O)c2nn[nH]n2)c2cc(Cl)ccc21 | 256 °C (dec.)
29 | O=C(O)c1cccc(C(O)=CC(=O)c2cn(S(=O)(=O)c3ccccc3)c3ccc(Cl)cc23)c1 | 245 to 255 °C (dec.)
30 | CCOCCNC(=CC(=O)c1cn(Cc2ccccc2)c2ccc(Cl)cc12)C(=O)O | 184 to 186 °C (dec.)

target: HIV-1 integrase (Human immunodeficiency virus type 1 group M subtype B, UniProt P04585); assay: HIV-1 integrase inhibition assay (microtiter plate, substrate DNA/target DNA, OD 405 nm); type: biochemical
Procedure: The DNA solutions were annealed with each complement by slowly cooling after heating.
After coating each well of microtiter plates (obtained from NUNC) with 50 μl of the above solution at 4° C. overnight, each well was washed twice with PBS (composition: […], 0.27 mM KCl, 0.43 mM Na2HPO4, 0.14 mM KH2PO4) and blocked with 300 μl of 1% skim milk in PBS for 30 min. Additionally, each well was washed twice with PBS and added 50 μl of substrate DNA solution (2 pmol/μl). The microtiter plates were kept at room temperature for 30 min. Then, each well was washed twice with PBS and once with H2O.
The microtiter plates were incubated at 30° C. for 1 hour. […] Then, each well was washed twice with 0.05% Tween20 in PBS and once with PBS. […] The optical density (OD) at 405 nm of each well was measured and the percent inhibition was determined by the following expression.

Row | Structure (SMILES) | IC50
31 | O=C(C=C(O)c1nn[nH]n1)c1cn(S(=O)(=O)c2cccs2)c2ccc(Cl)cc12 [Example 80] | 7.57 µM
32 | O=C(C=C(O)c1nn[nH]n1)c1cn(Cc2ccccc2)c2ccc(Cl)cc12 [Example 81] | 9.48 µM
33 | O=C(C=C(O)c1nc[nH]n1)c1c[nH]c2ccc(Cl)cc12 [Example 71] | 5.16 µM
34 | O=C(O)C(O)=CC(=O)c1cn(S(=O)(=O)c2ccccc2)c2ccc(Cl)cc12 [Example 23(2), 4-(1-Benzenesulfonyl-5-chloroindol-3-yl)-2-hydroxy-4-oxo-2butenoic acid] | 0.32 µM
